What all share (experiment): Test A pre-/postemergence herbicide test
For one assay, the system named is barnyardgrass. Type of assay: in vivo, Echinochloa crus-galli. The source says: (§1) Seeds of plant species selected from barnyardgrass (Echinochloa crus-galli (L.) Beauv.), downy bromegrass (Bromus tectorum L.), large crabgrass (Digitaria sanguinalis (L.) Scop.), giant foxtail (Setaria faberi Herrm.), morningglory (Ipomoea spp.), redroot pigweed (Amaranthus retroflexus L.) and velvetleaf (Abutilon theophrasti Medik.) were planted into a sandy loam soil and treated preemergence with a directed soil spray using test chemicals formulated in a non-phytotoxic solvent mixture which included a surfactant. At the same time plants selected from these species were also treated postemergence by spraying to runoff with test chemicals formulated.
(§2) Plants ranged in height from 2 to 10 cm and were in the one- to two-leaf stage for the postemergence treatment. Treated plants and untreated controls were maintained in a greenhouse for approximately ten days, after which time all treated plants were compared to untreated controls and visually evaluated for injury. Plant response ratings, summarized in Table A, are based on a 0 to 100 scale where 0 is no effect and 100 is complete control. A dash (-) response means no test results.

The subject of the next assay is large crabgrass. Type of assay: in vivo, Digitaria sanguinalis.
From the text: as §1, §2

For the next assay, the system named is giant foxtail. The format is in vivo, Setaria faberi.
From the text: as §1, §2

In a further assay the test system is morningglory. The format is in vivo, Ipomoea spp.
From the text: as §1, §2

In another assay the test system is redroot pigweed. Type of assay: in vivo, Amaranthus retroflexus.
From the text: as §1, §2

A further assay has as its system velvetleaf. Type of assay: in vivo, Abutilon theophrasti.
From the text: as §1, §2

The mark [1] stands for this setting: Postemergence, 500 g ai/ha, 0 to 100 scale, 0 no effect, 100 complete control.
Where [2] appears, read: Postemergence, 2000 g ai/ha, 0 to 100 scale, 0 no effect, 100 complete control.
The mark [3] stands for this setting: Preemergence, 500 g ai/ha, visual rating, 0 to 100 scale (0 no effect, 100 complete control).
[4] abbreviates: Preemergence, 2000 g ai/ha, 0 to 100 scale, 0 no effect, 100 complete control.
The mark [5] stands for this setting: Postemergence, 125 g ai/ha, 0 to 100 scale, 0 no effect, 100 complete control.
Where [6] appears, read: preemergence, 125 g ai/ha, visual injury, 0 to 100 scale (0 no effect, 100 complete control).
The mark [7] stands for this setting: preemergence, 500 g ai/ha, visual injury, 0 to 100 scale (0 no effect, 100 complete control).
Setting [8] is: Preemergence, 2000 g ai/ha, visual rating, 0 to 100 scale (0 no effect, 100 complete control).

As for `Cn1nc(C(C)(C)C)cc1C(=O)Nc1cccc2c1CNC2=O` [Compound 53], the “Plant response rating, Barnyardgrass” value with barnyardgrass (setting [1]) and with barnyardgrass (setting [2]) was 0 in each case. Further, the “Barnyardgrass plant response rating” value in the assay with barnyardgrass (setting [3]) is 0; in the assay on barnyardgrass (setting [4]), 10. In addition, the “Plant response rating, Crabgrass, Large” value was 5 with large crabgrass (setting [1]) and 0 in the assay on large crabgrass (setting [2]). Further, the “Crabgrass, Large plant response rating” value in the assay with large crabgrass (setting [3]) amounted to 0; in the assay with large crabgrass (setting [4]), 40. For the same molecule, the “Plant response rating, Foxtail, Giant” value with giant foxtail (setting [1]) and with giant foxtail (setting [2]) was 0 throughout. Besides, the “Foxtail, Giant plant response rating” value in the assay on giant foxtail (setting [3]) and with giant foxtail (setting [4]) was 0 each time. Besides, the “Plant response rating, Morningglory” value in the assay on morningglory (setting [1]) and in the assay with morningglory (setting [2]) was 0 throughout. Moreover, the “Morningglory plant response rating” value in the assay with morningglory (setting [3]) and in the assay with morningglory (setting [4]) was 0 each time. Besides, the “Plant response rating, Pigweed” value in the assay on redroot pigweed (setting [1]) and with redroot pigweed (setting [2]) was 0 each time. Also, the “Pigweed plant response rating” value in the assay with redroot pigweed (setting [3]) was 30; with redroot pigweed (setting [4]) it was 40. Moreover, in the assay with velvetleaf (setting [2]), the “Plant response rating, Velvetleaf” value is reported as 0. The “Velvetleaf plant response rating” value in the assay with velvetleaf (setting [3]) and in the assay with velvetleaf (setting [4]) was 0 in each case.

On to `CCNC(=O)c1ccc(F)c(NC(=O)c2nc(C(C)(C)C)nn2CC)c1` [Compound 447], for which the “Barnyardgrass plant response rating” value in the assay on barnyardgrass (setting [5]) is reported as 25; in the assay with barnyardgrass (setting [1]) it was 70; with barnyardgrass (setting [6]), 20; with barnyardgrass (setting [7]), 60. Besides, the “Crabgrass, Large plant response rating” value in the assay on large crabgrass (setting [5]) is 10; in the assay with large crabgrass (setting [1]), 25; with large crabgrass (setting [6]) it was 0; in the assay with large crabgrass (setting [7]), 35. For the same molecule, the “Foxtail, Giant plant response rating” value turned out to be 10 with giant foxtail (setting [5]), 40 in the assay on giant foxtail (setting [1]), 10 in the assay on giant foxtail (setting [6]) and 45 in the assay on giant foxtail (setting [7]). For the same molecule, the “Morningglory plant response rating” value was 5 in the assay with morningglory (setting [5]), 10 in the assay on morningglory (setting [1]), 0 in the assay on morningglory (setting [6]) and 0 in the assay with morningglory (setting [7]). Besides, the “Pigweed plant response rating” value in the assay with redroot pigweed (setting [5]) came out at 40; in the assay on redroot pigweed (setting [1]), 50; with redroot pigweed (setting [6]) it was 10; in the assay with redroot pigweed (setting [7]), 50. In addition, the “Velvetleaf plant response rating” value is given as 10 with velvetleaf (setting [5]), 30 in the assay on velvetleaf (setting [1]), 0 with velvetleaf (setting [6]) and 0 in the assay with velvetleaf (setting [7]).

As to `CC(=NO)c1cccc(NC(=O)c2cc(C(F)(F)F)nn2C)c1` [Compound 103], the figures for the “Barnyardgrass plant response rating” value in the assay on barnyardgrass (setting [1]), in the assay on barnyardgrass (setting [3]) and in the assay with barnyardgrass (setting [8]) were 45, 55 and 85, respectively. Besides, the “Plant response rating, Barnyardgrass” value in the assay with barnyardgrass (setting [2]) turned out to be 75. In addition, the “Crabgrass, Large plant response rating” value stood at 15 in the assay on large crabgrass (setting [1]), 35 in the assay on large crabgrass (setting [3]) and 55 in the assay with large crabgrass (setting [8]). The “Plant response rating, Crabgrass, Large” value with large crabgrass (setting [2]) came out at 30. The “Foxtail, Giant plant response rating” value turned out to be 10 in the assay on giant foxtail (setting [1]), 0 in the assay with giant foxtail (setting [3]) and 15 in the assay with giant foxtail (setting [8]). Moreover, the “Plant response rating, Foxtail, Giant” value in the assay with giant foxtail (setting [2]) is listed as 30. Further, the figures for the “Morningglory plant response rating” value in the assay with morningglory (setting [1]), in the assay with morningglory (setting [3]) and in the assay on morningglory (setting [8]) were 25, 0 and 10, respectively. The “Plant response rating, Morningglory” value in the assay with morningglory (setting [2]) is 35. The “Pigweed plant response rating” value in the assay with redroot pigweed (setting [1]) was 85; with redroot pigweed (setting [3]), 80; with redroot pigweed (setting [8]), 95. In the assay on redroot pigweed (setting [2]), the “Plant response rating, Pigweed” value is 100. Besides, the “Velvetleaf plant response rating” value is 10 in the assay on velvetleaf (setting [1]), 20 with velvetleaf (setting [3]) and 20 in the assay on velvetleaf (setting [8]). The “Plant response rating, Velvetleaf” value with velvetleaf (setting [2]) worked out at 45.

The values are drawn from patent publication US20060069132A1, “Azolecarboxamide herbicides” (priority 2004, published 2006).
